Experimental data published in US20240131007A1, “METHODS AND COMPOSITIONS FOR PICORNAVIRUS ANTI-VIRAL AGENTS” (University of Connecticut, priority 2022, published 2024).
Where two headings read alike, the source gives them in different places.

What was measured:
EV-A71 = experiment: CPE inhibition assay (Cell Titer Glo) against EV-A71 in Vero cells; type: cell-based, Enterovirus A71; settings: for IC50: Enterovirus A, EVA71, EV-A71, Vero cells; for Selectivity Index: CC50/IC50
in vitro = settings: African green monkey, CC50 (μM)
[1] = Table 10, Scaffold 1, read-out: IC50
[2] = Table 8, virus-induced CPE, read-out: IC50

| SMILES | IC50 (EV-A71; [1]) [µM] | CC50 at 3 days (in vitro) [µM] | Selectivity Index (EV-A71; Table 10, Scaffold 1) | IC50 (EV-A71; [2]) [µM] | Selectivity Index (EV-A71; Table 8) | IC50 (EV-A71; read-out: IC50 for inhibition of virus-induced CPE) [µM] |
| --- | --- | --- | --- | --- | --- | --- |
| CC(=O)Nc1ccc(-c2nc3ccccc3[nH]2)cc1 [Compound 1, N-[4-(1H-benzimidazol-2-yl)phenyl]acetamide] | > 25 | > 400 |  |  |  |  |
| O=C(Nc1ccc(-c2nc3ccccc3[nH]2)cc1)C1CC1 [Compound 2, N-[4-(1H-benzimidazol-2-yl)phenyl]cyclopropanecarboxamide] | 39.3 | 148 | 3.77 |  |  |  |
| CC(=O)Nc1ccc(C(=O)Nc2ccc(-c3nc4ccccc4[nH]3)cc2)cc1 [Compound 3, 4-(acetylamino)-N-[4-(1H-benzimidazol-2-yl)phenyl]benzamide] | > 25 | > 400 |  |  |  |  |
| CC(=O)Oc1ccc(C(=O)Nc2ccc(-c3nc4ccccc4[nH]3)cc2)cc1 [Compound 4, 4-({[4-(1H-benzimidazol-2-yl)phenyl]amino}carbonyl)phenyl acetate] | 34.2 | 119 | 3.49 |  |  |  |
| Cc1ccc2[nH]c(-c3ccc(NC(=O)CCC(=O)O)cc3)nc2c1 [Compound 5, 4-{[4-(5-methyl-1H-benzimidazol-2-yl)phenyl]amino}-4-oxobutanoic acid] | > 25 | > 400 |  |  |  |  |
| O=C(Nc1ccc(-c2nc3ccccc3[nH]2)cc1)c1ccccc1 [Compound 6, N-[4-(1H-benzimidazol-2-yl)phenyl]benzamide] | 30.8 | 13.7 | 0.45 |  |  |  |
| O=C(Cc1ccccc1)Nc1ccc(-c2nc3ccccc3[nH]2)cc1 [Compound 7, N-[4-(1H-benzimidazol-2-yl)phenyl]-2-phenylacetamide] | > 25 | > 400 |  |  |  |  |
| O=C(Nc1ccc(-c2nc3ccccc3[nH]2)cc1)c1ccccn1 [Compound 8, N-[4-(1H-benzimidazol-2-yl)phenyl]-2-pyridinecarboxamide] |  | 244 | 167.19 | 1.46 | 167.19 |  |
| O=C(Nc1ccc(-c2nc3ccccc3[nH]2)cc1)c1cccs1 [Compound 10, N-[4-(1H-benzimidazol-2-yl)phenyl]-2-thiophenecarboxamide] |  | 210 | 42.06 | 5 | 42.06 |  |
| O=C(Nc1ccc(-c2nc3ccccc3[nH]2)cc1)c1ccc(Br)o1 [Compound 11, N-[4-(1H-benzimidazol-2-yl)phenyl]-5-bromo-2-furamide] | 252 | 1650 | 6.54 |  |  |  |
| O=C(Nc1ccc(-c2nc3ccccc3[nH]2)cc1)c1ccccc1F [Compound 13, N-[4-(1H-benzimidazol-2-yl)phenyl]-2-fluorobenzamide] | > 25 | 98.1 |  |  |  |  |
| O=C(Nc1ccc(-c2nc3ccccc3[nH]2)cc1)c1ccc(F)cc1 [Compound 14, N-[4-(1H-benzimidazol-2-yl)phenyl]-4-fluorobenzamide] | > 25 | 133 |  |  |  |  |
| O=C(Nc1ccc(-c2nc3ccccc3[nH]2)cc1)c1cccc(F)c1 [Compound 15, N-[4-(1H-benzimidazol-2-yl)phenyl]-3-fluorobenzamide] | > 25 | 29.2 |  |  |  |  |
| O=C(Nc1ccc(-c2nc3ccccc3[nH]2)cc1)C1CCCC1 [Compound 17, N-[4-(1H-benzimidazol-2-yl)phenyl]cyclopentanecarboxamide] | 13.4 | 266 | 19.91 |  |  |  |
| O=C(Nc1ccc(-c2nc3ccccc3[nH]2)cc1)c1ccc(N2CCOCC2)c([N+](=O)[O-])c1 [Compound 18, N-[4-(1H-benzimidazol-2-yl)phenyl]-4-(4-morpholinyl)-3-nitrobenzamide] | > 25 | 11.1 |  |  |  |  |
| O=C(Nc1ccc(-c2nc3ccccc3[nH]2)cc1)c1cc([N+](=O)[O-])ccc1N1CCOCC1 [Compound 19, N-[4-(1H-benzimidazol-2-yl)phenyl]-2-(4-morpholinyl)-5-nitrobenzamide] | 7.28 | 2090 | 287.50 |  |  |  |
| O=C(CSCc1ccc([N+](=O)[O-])cc1)Nc1ccc(-c2nc3ccccc3[nH]2)cc1 [Compound 21, N-[4-(1H-benzimidazol-2-yl)phenyl]-2-[(4-nitrobenzyl)thio]acetamide] | > 25 | > 400 |  |  |  |  |
| O=C(Nc1ccc(-c2nc3ccccc3[nH]2)cc1)c1ccc(-c2cccc([N+](=O)[O-])c2)o1 [Compound 23, N-[4-(1H-benzimidazol-2-yl)phenyl]-5-(3-nitrophenyl)-2-furamide] | > 25 | 1.14 |  |  |  |  |
| O=C(Cc1cccc2ccccc12)Nc1ccc(-c2nc3ccccc3[nH]2)cc1 [Compound 24, N-[4-(1H-benzimidazol-2-yl)phenyl]-2-(1-naphthyl)acetamide] | 8.34 | 58.8 | 7.05 |  |  |  |
| O=C(Nc1ccc(-c2nc3ccccc3[nH]2)cc1)c1ccc(-c2ccc(Cl)cc2)o1 [Compound 26, N-[4-(1H-benzimidazol-2-yl)phenyl]-5-(4-chlorophenyl)-2-furamide] | 5.7 | 44.3 | 7.77 |  |  |  |
| O=C(Nc1ccc(-c2nc3ccccc3[nH]2)cc1)c1ccc(-c2cccc(Cl)c2)o1 [Compound 27, N-[4-(1H-benzimidazol-2-yl)phenyl]-5-(3-chlorophenyl)-2-furamide] | 5.85 | 67.6 | 11.56 |  |  |  |
| CC(=O)Nc1ccc(-c2nc3cc(C)ccc3[nH]2)cc1 [Compound 29, N-[4-(5-methyl-1H-benzimidazol-2-yl)phenyl]acetamide] | 69.3 | > 400 | >5.77 |  |  |  |
| CC(=O)Nc1ccc(-c2nc3ccc(Cl)cc3[nH]2)cc1 [Compound 30, N-[4-(6-chloro-1H-benzimidazol-2-yl)phenyl]acetamide] | > 25 | > 400 |  |  |  |  |
| Cc1ccc2[nH]c(-c3ccc(NC(=O)C4CC4)cc3)nc2c1 [Compound 31, N-[4-(5-methyl-1H-benzimidazol-2-yl)phenyl]cyclopropanecarboxamide] | 9.6 | > 400 | >41.67 |  |  |  |
| CCC(=O)Nc1ccc(-c2nc3ccc(Cl)cc3[nH]2)cc1 [Compound 32, N-[4-(6-chloro-1H-benzimidazol-2-yl)phenyl]propanamide] | > 25 | > 400 |  |  |  |  |
| Cc1ccc2[nH]c(-c3ccc(NC(=O)C(C)C)cc3)nc2c1 [Compound 33, 2-methyl-N-[4-(5-methyl-1H-benzimidazol-2-yl)phenyl]propanamide] | 11.8 | 468 | 39.46 |  |  |  |
| Cc1ccc2[nH]c(-c3ccc(NC(=O)C(F)(F)F)cc3)nc2c1 [Compound 34, 2,2,2-trifluoro-N-[4-(5-methyl-1H-benzimidazol-2-yl)phenyl]acetamide] | > 25 | 618 |  |  |  |  |
| Cc1ccc2[nH]c(-c3ccc(NC(=O)COc4ccccc4)cc3)nc2c1 [Compound 38, N-[4-(5-methyl-1H-benzimidazol-2-yl)phenyl]-2-phenoxyacetamide] | > 25 | > 400 |  |  |  |  |
| CCCCOc1cc(C(=O)NCCN(CC)CC)c2ccccc2n1 [Dibucaine, reference compound] |  |  |  |  |  | 4.5 |
